Reference: patent US20110136752A1, “NOVEL ANTIBIOTICS” (priority 2009, published 2011)

Columns and labels:
[1] = test system: NIH3T3 mouse embryonic fibroblasts; assay: Mammalian cytotoxicity, CellTiter 96 AQueous One Solution assay; type: cell-based; settings: NIH3T3 cells, 24 hr, highest tested concentration 16 μg/ml
Method: Mammalian cytotoxicity assays were performed using NIH3T3 mouse embryonic fibroblasts (ATCC CRL-1658), and cytotoxicity was measured using the CellTiter 96® AQueous One Solution Cell Proliferation Assay (Promega, Madison, Wis., Cat: G3582), according to the manufacturer's recommendations.
100× working stocks of 2-fold serial dilution of NOVO4 in DMSO were created in a 96 well format. The highest concentration of the 100× concentration (working stock) was prepared by adding […] of the stock solution of NOVO4 (10 mg/ml in DMSO) for every 0.68 μl of DMSO to well A02. 0.5 μl of this 100× stock was added for every 0.5 μl of DMSO in well A03 to create a total of 7 two-fold serial dilution series, from 1600 μg/ml to 25 μg/ml (from highest in well A02 to A08,). A DMSO control was also included (wells in column A01, and A12). […]
The plate was visually inspected under a dissecting microscope, and the absorbance at 490 nm was read using a Spectramax Plus Spectrophotometer, with wells A12, and B12 reserved as blanks The signal of compound alone (well A11) was verified not to contribute to the absorbance at this wavelength. Next, 20 μl of the CellTiter 96® AQueous One Solution Cell Proliferation Assay (Promega, Madison, Wis., Cat: G3582) was added to each well, and the plate was read after 3 hr of incubation. […]

human red blood cells = type: cell-based
Method: The effect of NOVO4 on the hemolysis of human red blood cells was also tested. A total of 10 ml of expired packed red blood cells from the blood bank was gently added to 80 ml of PBS (Phosphate buffered saline), and pelleted at 1000 g for 5 minutes at 4° C. The upper phase and buffy layer (white blood cells) were removed. The cells are repeatedly washed by gentle mixing with PBS, and centrifugation until the upper phase is clear. In the last wash, 40 ml of 1× PBS with 0.05% BSA was added to half of the red blood cells while 40 ml of 1× PBS without BSA was added to the other half. The upper phase of the last wash was removed to leave a total volume of about 10 ml. The concentration of the red blood cells was measured by using the spectrophometer at 600 nm. An aliquot of the cells are diluted to a final density OD600 of 24 in 1× PBS, and another to a final density OD600 of 24 in 1× PBS with 0.05% BSA.
The compound NOVO4 is two-fold serially diluted (similar to that described above for mammalian NIH3T3 cytotoxicity assay) as 100× concentration in DMSO, ranging from 0.4 μg/ml to 400 μg/ml. […] After thorough mixing, the A450 was read using a Spectramax Plus Spectrophotometer, using wells with only 1× PBS as blanks […]

[2] = Single-dose acute toxicity in mice; settings: mouse, in vivo; female CD-1 mice, SC, 3 doses of 50 mg/kg 2 hours apart in 0.5% methylocellulose, followed for 2 days
Method: Single-dose, acute toxicity experiments were carried out in female CD-1 mice. The animals were acclimated for 3 days and were 7 weeks old at the start of the experiments. Their weight ranged from 16 to 24 g.
In order to determine the maximum tolerated dose, a group of 3 mice was dosed with a total of 4.9 mg/kg of NOVO4 (10% DMSO in saline) delivered as two separate IV doses, 2 hr apart. In addition, another 3 mice were dosed subcutaneously with a total of 150 mg/kg of NOVO4 in 0.5% methylocellulose, delivered as 3 doses of 50 mg/kg each, 2 hours apart. The mice were then followed for 2 days.
This indicated a very high MTD of >150 mg/kg for NOVO4.

[3] = test system: different bacterial test strains; assay: Effect of serum or BSA supplement on MIC of NOVO4; type: cell-based
Method: The lowest concentration of NOVO4 without any cell growth is the MIC (Minimal Inhibitory Concentration) of NOVO4. The data is the MIC of NOVO4 on different bacterial test strains in the presence of Mueller Hinton broth (MHB) or with MHB supplemented with either […].
These studies follow the procedure for determining the MIC described above in Example 5. Briefly, two-fold serial dilution of the NOVO4 compound are added to the test cells of interest, MRSA and VRE, and the lowest concentration of compound that inhibits growth after a period of incubation is considered to be the MIC. To determine the effect of serum on the activity of NOVO4, MIC in the absence of serum is compared to MIC in media supplemented with 10% calf bovine serum (ATCC 30-2030).

Compound | LD50 [1] [µg/mL] | hemolysis (human red blood cells) | MTD at 2 days [2] [mg/kg] | effect of 0.05% BSA on the MIC ([3]; MHB versus MHB + 0.05% BSA, depending on the test organisms) | effect of calf bovine serum on the MIC ([3]; MHB versus media supplemented with 10% calf bovine serum) | A450 (hemoglobin released by lysis of red blood cells) (human red blood cells)
CC1\C=C/C=C\C=C/C=C\C=C/C(OC2OCC(O)C(O)C2N)C(C)(O)/C=C/C=C\C=C/C=C/C(=O)NC1 (stereo not drawn) [NOVO4] | > 16 | no significant hemolysis | > 150 | either unchanged or lowered sightly | no significant effect | 
Triton X100 [reference compound] |  |  |  |  |  | 0.41
